# Measured values: patent US11820766B2, “Monoacylglycerol lipase modulators” (Janssen Pharmaceutica NV, priority 2018, dated 2023)
# Molecular target: T1, human MGL from HeLa cells (Homo sapiens, UniProt Q99685)
# T1 construct: combining endogenously expressed MGL from HeLa cells with test compounds; endogenous in cells; host or cells: HeLa cells / cell homogenates
# T1 sequence (Q99685 1-303): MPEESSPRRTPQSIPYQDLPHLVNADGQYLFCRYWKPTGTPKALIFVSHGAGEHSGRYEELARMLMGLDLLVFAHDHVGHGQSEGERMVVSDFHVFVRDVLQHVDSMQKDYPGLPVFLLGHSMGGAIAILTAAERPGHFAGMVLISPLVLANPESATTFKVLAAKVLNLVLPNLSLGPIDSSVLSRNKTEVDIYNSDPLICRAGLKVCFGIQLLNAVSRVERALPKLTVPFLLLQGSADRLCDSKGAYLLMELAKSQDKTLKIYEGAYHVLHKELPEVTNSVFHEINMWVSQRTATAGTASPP
# Test: In vitro MGL activity assay: [glycerol-1,3-3H]-oleyl glycerol cleavage by MGL from HeLa cells
# Type: biochemical
# Conditions: 300 nM [Glycerol-1,3-3H]-oleyl glycerol, one hour
# From the text: MGL is the predominant hydrolase in HeLa cells/cell homogenates.
row,SMILES,IC50 [nM]
1,"Cc1cc(F)cc(-c2c3c(nn2C)[C@H](C)N(C(=O)c2ccc4ncccc4c2)CC3)c1 [Example 511, [(7S)-3-(3-Fluoro-5-methyl-phenyl)-2,7-dimethyl-5,7-dihydro-4H-pyrazolo[3,4-c]pyridin-6-yl]-(6-quinolyl)methanone]",6.58
2,"C[C@H]1c2nn(C)c(-c3cc(F)c(F)c(F)c3)c2CCN1C(=O)c1ccn2ncc(F)c2c1 [Example 378, [(7S)-2,7-Dimethyl-3-(3,4,5-trifluorophenyl)-5,7-dihydro-4H-pyrazolo[3,4-c]pyridin-6-yl]-(3-fluoropyrazolo[1,5-a]pyridin-5-yl)methanone]",38.8
3,"COc1cc(Cl)cc(-c2c3c(nn2C)[C@H](C)N(C(=O)c2c(C)nc4ccc(F)cn24)CC3)c1 [Example 406, [(7S)-3-(3-Chloro-5-methoxy-phenyl)-2,7-dimethyl-5,7-dihydro-4H-pyrazolo[3,4-c]pyridin-6-yl]-(6-fluoro-2-methyl-imidazo[1,2-a]pyridin-3-yl)methanone]",22.6
4,"Cc1nc(C(=O)N2CCc3c(nn(C)c3-c3cc(F)c(F)c(F)c3)[C@@H]2C)c2cnccn12 [Example 462, [(7S)-2,7-Dimethyl-3-(3,4,5-trifluorophenyl)-5,7-dihydro-4H-pyrazolo[3,4-c]pyridin-6-yl]-(3-methylimidazo[1,5-a]pyrazin-1-yl) methanone]",35.4
5,"C[C@H]1c2nn(C)c(-c3cc(F)c(F)c(F)c3)c2CCN1C(=O)c1cccc2oc(=O)[nH]c12 [Example 584, 4-[(7S)-2,7-Dimethyl-3-(3,4,5-trifluorophenyl)-5,7-dihydro-4H-pyrazolo[3,4-c]pyridine-6-carbonyl]-3H-1,3-benzoxazol-2-one]",300
6,"C[C@H]1c2nn(C)c(-c3cc(F)c(F)c(F)c3)c2CCN1C(=O)c1cccc2c1CCCO2 [Example 581, Chroman-5-yl-[(7S)-2,7-dimethyl-3-(3,4,5-trifluorophenyl)-5,7-dihydro-4H-pyrazolo[3,4-c]pyridin-6-yl]methanone]",15.6
7,"CC1CC1c1c(C(=O)N2CCc3c(nn(C)c3-c3cc(F)c(F)c(F)c3)[C@@H]2C)cnn1C (stereo partly drawn) [Example 341, ((S)-2,7-Dimethyl-3-(3,4,5-trifluorophenyl)-2,4,5,7-tetrahydro-6H-pyrazolo[3,4-c]pyridin-6-yl)(1-methyl-cis-5-(2-methylcyclopropyl)-1H-pyrazol-4-yl)methanone]",9.53
8,"Cc1nc2ccc(F)cn2c1C(=O)N1CCc2c(nn(C)c2-c2cc(F)c(F)c(F)c2)[C@@H]1C [Example 407, [(7S)-2,7-Dimethyl-3-(3,4,5-trifluorophenyl)-5,7-dihydro-4H-pyrazolo[3,4-c]pyridin-6-yl]-(6-fluoro-2-methyl-imidazo[1,2-a]pyridin-3-yl)methanone]",21.3
9,"COc1nccc(C(=O)N2CCc3c(nn(C)c3-c3ccc(F)c(C(F)F)c3)[C@@H]2C)c1C [Example 593, [(7S)-3-[3-(Difluoromethyl)-4-fluoro-phenyl]-2,7-dimethyl-5,7-dihydro-4H-pyrazolo[3,4-c]pyridin-6-yl]-(2-methoxy-3-methyl-4-pyridyl)methanone]",57
10,"C[C@H]1c2nn(C)c(-c3cc(F)c(F)c(F)c3)c2CCN1C(=O)c1c(C(F)(F)F)cnc2[nH]ccc12 [Example 371, [(7S)-2,7-Dimethyl-3-(3,4,5-trifluorophenyl)-5,7-dihydro-4H-pyrazolo[3,4-c]pyridin-6-yl]-[5-(trifluoromethyl)-1H-pyrrolo[2,3-b]pyridin-4-yl] methanone]",136

# Same assay, conditions: 300 nM [Glycerol-1,3-3H]-oleyl glycerol, one hour incubation
row,SMILES,IC50 [nM]
1,"CC1c2nn(C)c(-c3cc(F)cc(F)c3)c2CCN1C(=O)c1ccc2ncccc2c1 (stereo not drawn) [Example 106, (3-(3,5-Difluorophenyl)-2,7-dimethyl-2,4,5,7-tetrahydro-6H-pyrazolo[3,4-c]pyridin-6-yl)(quinolin-6-yl)methanone]",7.36
2,"Cn1nc2c(c1-c1ccccc1)CCN(C(=O)c1cn(C)c3ccccc13)C2 [Example 52, (1-Methyl-1H-indol-3-yl)(2-methyl-3-phenyl-2,4,5,7-tetrahydro-6H-pyrazolo[3,4-c]pyridin-6-yl)methanone]",138
3,"C[C@H]1c2nn(C)c(-c3cc(F)c(F)c(F)c3)c2CCN1C(=O)c1cc(F)cc(-n2nccn2)c1 [Example 284, [(7S)-2,7-Dimethyl-3-(3,4,5-trifluorophenyl)-5,7-dihydro-4H-pyrazolo[3,4-c]pyridin-6-yl]-[3-fluoro-5-(triazol-2-yl)phenyl]methanone]",15.6
4,"C[C@H]1c2nn(C)c(-c3cc(F)c(F)c(F)c3)c2CCN1C(=O)c1ccccc1-n1cncn1 [Example 279, [(7S)-2,7-Dimethyl-3-(3,4,5-trifluorophenyl)-5,7-dihydro-4H-pyrazolo[3,4-c]pyridin-6-yl]-[2-(1,2,4-triazol-1-yl)phenyl]methanone]",7.34
5,"C[C@H]1c2nn(C)c(-c3cc(F)c(F)c(F)c3)c2CCN1C(=O)c1ccc(F)c(-n2cnnc2)c1 [Example 291, [(7S)-2,7-Dimethyl-3-(3,4,5-trifluorophenyl)-5,7-dihydro-4H-pyrazolo[3,4-c]pyridin-6-yl]-[4-fluoro-3-(1,2,4-triazol-4-yl)phenyl]methanone]",1400
6,C[C@H]1c2nn(C)c(-c3cc(F)cc(F)c3)c2CCN1C(=O)c1ccc2ncccc2n1 [Example 170],23.2
7,"CC1c2nn(C)c(-c3cccc4c3ccn4C)c2CCN1C(=O)c1ccc2ncccc2c1 (stereo not drawn) [Example 249, (2,7-Dimethyl-3-(1-methyl-1H-indol-4-yl)-2,4,5,7-tetrahydro-6H-pyrazolo[3,4-c]pyridin-6-yl)(quinolin-6-yl)methanone]",1530
8,"C[C@H]1c2nn(C)c(-c3cc(F)c(F)c(F)c3)c2CCN1C(=O)c1cc(-n2nccn2)cc(C(F)(F)F)c1 [Example 287, [(7S)-2,7-Dimethyl-3-(3,4,5-trifluorophenyl)-5,7-dihydro-4H-pyrazolo[3,4-c]pyridin-6-yl]-[3-(triazol-2-yl)-5-(trifluoromethyl)phenyl]methanone]",60.4
9,"COc1cc(C(=O)N2CCc3c(nn(C)c3-c3cc(F)c(F)c(F)c3)[C@@H]2C)nn1C [Example 200, (S)-(2,7-Dimethyl-3-(3,4,5-trifluorophenyl)-2,4,5,7-tetrahydro-6H-pyrazolo[3,4-c]pyridin-6-yl)(5-methoxy-1-methyl-1H-pyrazol-3-yl)methanone]",295
10,"Cn1nc2c(c1-c1ccccc1)CCN(C(=O)c1ccc3cc[nH]c3c1)C2 [Example 46, (1H-Indol-6-yl)(2-methyl-3-phenyl-2,4,5,7-tetrahydro-6H-pyrazolo[3,4-c]pyridin-6-yl)methanone]",359
11,"CC1c2nn(C)c(-c3cc(F)cc(F)c3)c2CCN1C(=O)c1ncn(-c2ccccc2)n1 (stereo not drawn) [Example 148, (3-(3,5-Difluorophenyl)-2,7-dimethyl-2,4,5,7-tetrahydro-6H-pyrazolo[3,4-c]pyridin-6-yl)(1-phenyl-1H-1,2,4-triazol-3-yl)methanone]",67.1
